From ChEMBL document CHEMBL1151469, “Cytotoxic activity of N-chlorotaurine on Acanthamoeba spp” (Antimicrob Agents Chemother, 2008)
Calls of active or inactive are those of the source. The rule behind the calls is not given here.

Experiments:
Acanthamoeba polyphaga [1] = assay: Amoebicidal activity against Trophozoites of Acanthamoeba polyphaga 5SU assessed as rounding of cells at 55 mM in phosphate buffered saline at pH 7 after 15 mins by hemocytometer using trypan blue stain in presence of 190 mM ammonium chloride; format: functional, organism-based
Acanthamoeba polyphaga [2] = assay: Amoebicidal activity against Trophozoites of Acanthamoeba polyphaga 5SU at 55 mM in phosphate buffered saline at pH 7 after 1 hr by hemocytometer using trypan blue stain in presence of 190 mM ammonium chloride; format: functional, organism-based
Acanthamoeba polyphaga [3] = assay: Amoebicidal activity against Trophozoites of Acanthamoeba polyphaga 5SU assessed as rounding of the cells at 55 mM in peptone yeast extract glucose medium at pH 7 after 30 mins by hemocytometer using trypan blue stain; format: functional, organism-based
Acanthamoeba hatchetti [4] = assay: Amoebicidal activity against Trophozoites of Acanthamoeba hatchetti 11DS assessed as killing time at 55 mM in peptone yeast extract glucose medium at pH 7 by hemocytometer using trypan blue stain; format: functional
Acanthamoeba hatchetti [5] = assay: Amoebicidal activity against Trophozoites of Acanthamoeba hatchetti 11DS assessed as killing time at 0.16 M in peptone yeast extract glucose medium at pH 7 by hemocytometer using trypan blue stain; format: functional
Acanthamoeba hatchetti [6] = assay: Amoebicidal activity against Trophozoites of Acanthamoeba hatchetti 11DS assessed as reduction of killing time at 10 mM in phosphate buffered saline at pH 5 by hemocytometer using trypan blue stain in presence of 34 mM ammonium chloride; format: functional, organism-based
Acanthamoeba polyphaga [7] = assay: Amoebicidal activity against Trophozoites of Acanthamoeba polyphaga 5SU assessed as log reduction in cell count at 10 mM in phosphate buffered saline at pH 5 after 1 hr by hemocytometer using trypan blue stain in presence of 34 mM ammonium chloride; format: functional, organism-based
Acanthamoeba hatchetti [8] = assay: Amoebicidal activity against Trophozoites of Acanthamoeba hatchetti 11DS assessed as reduction of killing time at 10 mM in phosphate buffered saline at pH 5 by hemocytometer using trypan blue stain in presence of 160 mM beta-alanine; format: functional
Acanthamoeba hatchetti [9] = assay: Amoebicidal activity against Trophozoites of Acanthamoeba hatchetti 11DS assessed as log reduction in cell count at 10 mM in phosphate buffered saline at pH 5 after 24 hrs by hemocytometer using trypan blue stain in presence of 34 mM ammonium chloride; format: functional, organism-based
Acanthamoeba polyphaga [10] = assay: Amoebicidal activity against Trophozoites of Acanthamoeba polyphaga 5SU assessed as killing time at 55 mM in peptone yeast extract glucose medium at pH 7 by hemocytometer using trypan blue stain; format: functional
Acanthamoeba hatchetti [11] = assay: Amoebicidal activity against Trophozoites of Acanthamoeba hatchetti 11DS assessed as rounding of the cells at 0.16 M in peptone yeast extract glucose medium at pH 7 by hemocytometer using trypan blue stain; format: functional, organism-based
Acanthamoeba hatchetti [12] = assay: Amoebicidal activity against Trophozoites of Acanthamoeba hatchetti 11DS assessed as rounding of the cells at 55 mM in phosphate buffered saline at pH 7 after 15 mins by hemocytometer using trypan blue stain; format: functional, organism-based
Acanthamoeba polyphaga [13] = assay: Amoebicidal activity against Trophozoites of Acanthamoeba polyphaga 5SU assessed as prevention of sporadic cysts formation at 55 mM in phosphate buffered saline at pH 7 by hemocytometer using trypan blue stain; format: functional, organism-based
Acanthamoeba castellanii [14] = assay: Amoebicidal activity against Trophozoites of Acanthamoeba castellanii 40AB assessed as killing time at 20 mM in peptone yeast extract glucose medium at pH 7 by hemocytometer using trypan blue stain; format: functional
Acanthamoeba polyphaga [15] = assay: Amoebicidal activity against Trophozoites of Acanthamoeba polyphaga 5SU assessed as complete killing time at 55 mM in phosphate buffered saline at pH 7 after 6 hrs by hemocytometer using trypan blue stain in presence of 190 mM ammonium chloride; format: functional, organism-based
Acanthamoeba castellanii [16] = assay: Amoebicidal activity against Trophozoites of Acanthamoeba castellanii 4CL assessed as log reduction in cell count at 10 mM in phosphate buffered saline at pH 7 after 6 hrs by hemocytometer using trypan blue stain; format: functional
Acanthamoeba hatchetti [17] = assay: Amoebicidal activity against Trophozoites of Acanthamoeba hatchetti 11DS assessed as killing time at 10 mM in phosphate buffered saline at pH 7 by hemocytometer using trypan blue stain; format: functional
Acanthamoeba castellanii [18] = assay: Amoebicidal activity against Trophozoites of Acanthamoeba castellanii 4CL assessed as killing time at 10 mM in phosphate buffered saline at pH 7 by hemocytometer using trypan blue stain; format: functional
Acanthamoeba castellanii [19] = assay: Amoebicidal activity against Trophozoites of Acanthamoeba castellanii 40AB assessed as killing time at 10 mM in phosphate buffered saline at pH 7 by hemocytometer using trypan blue stain; format: functional
Acanthamoeba polyphaga [20] = assay: Amoebicidal activity against Trophozoites of Acanthamoeba polyphaga 5SU assessed as log reduction in cell count at 20 mM in peptone yeast extract glucose medium at pH 7 after 24 hrs by hemocytometer using trypan blue stain; format: functional
Acanthamoeba hatchetti [21] = assay: Amoebicidal activity against Trophozoites of Acanthamoeba hatchetti 11DS assessed as log reduction in cell count at 10 mM in phosphate buffered saline after 24 hrs by hemocytometer using trypan blue staining; format: functional, organism-based
Acanthamoeba hatchetti [22] = assay: Amoebicidal activity against Trophozoites of Acanthamoeba hatchetti 11DS in peptone yeast extract glucose medium at pH 7 after 1 hr by hemocytometer using trypan blue stain; format: functional, organism-based
Acanthamoeba polyphaga [23] = assay: Amoebicidal activity against Trophozoites of Acanthamoeba polyphaga 5SU in peptone yeast extract glucose medium at pH 7 after 1 hr by hemocytometer using trypan blue stain in presence of 68 mM ammonium chloride; format: functional, organism-based
Acanthamoeba hatchetti [24] = assay: Amoebicidal activity against Trophozoites of Acanthamoeba hatchetti 11DS in peptone yeast extract glucose medium at pH 7 after 6 hrs by hemocytometer using trypan blue stain; format: functional, organism-based
Acanthamoeba polyphaga [25] = assay: Amoebicidal activity against Trophozoites of Acanthamoeba polyphaga 5SU in phosphate buffered saline at pH 7 after 6 hrs by hemocytometer using trypan blue stain in presence of 34 mM ammonium chloride; format: functional, organism-based
Acanthamoeba polyphaga [26] = assay: Amoebicidal activity against Trophozoites of Acanthamoeba polyphaga 5SU in peptone yeast extract glucose medium at pH 7 after 6 hrs by hemocytometer using trypan blue stain; format: functional, organism-based
Acanthamoeba polyphaga [27] = assay: Amoebicidal activity against Trophozoites of Acanthamoeba polyphaga 5SU in peptone yeast extract glucose medium at pH 7 after 6 hrs by hemocytometer using trypan blue stain in presence of 68 mM ammonium chloride; format: functional, organism-based
Acanthamoeba polyphaga [28] = assay: Amoebicidal activity against Trophozoites of Acanthamoeba polyphaga 5SU in phosphate buffered saline at pH 7 after 24 hrs by hemocytometer using trypan blue stain in presence of 34 mM ammonium chloride; format: functional, organism-based
Acanthamoeba hatchetti [29] = assay: Amoebicidal activity against excysted trophozoites of Acanthamoeba hatchetti 11DS at 55 mM in peptone yeast extract glucose medium after 24 hrs by hemocytometer using trypan blue stain; format: functional
Acanthamoeba hatchetti [30] = assay: Amoebicidal activity against excysted trophozoites of Acanthamoeba hatchetti 11DS at 55 mM in peptone yeast extract glucose medium after 4 days by hemocytometer using trypan blue stain; format: functional
Acanthamoeba castellanii [31] = assay: Amoebicidal activity against excysted trophozoites of Acanthamoeba castellanii 4CL at 55 mM in peptone yeast extract glucose medium after 6 days by hemocytometer using trypan blue stain; format: functional
Acanthamoeba castellanii [32] = assay: Amoebicidal activity against excysted trophozoites of Acanthamoeba castellanii 40AB at 55 mM in peptone yeast extract glucose medium after 11 days by hemocytometer using trypan blue stain; format: functional
Acanthamoeba polyphaga [33] = assay: Amoebicidal activity against Trophozoites of Acanthamoeba polyphaga 5SU assessed as complete loss of viability at 55 mM in phosphate buffered saline after 24 hrs by hemocytometer using trypan blue stain in presence of 190 mM ammonium chloride; format: functional, organism-based
Acanthamoeba hatchetti [34] = assay: Amoebicidal activity against Trophozoites of Acanthamoeba hatchetti 11DS assessed as complete loss of viability at 55 mM in phosphate buffered saline incubated in xenic agar medium after 14 days by hemocytometer using trypan blue stain in presence of 190 mM ammonium chloride; format: functional, organism-based

## O=S(=O)(O)CCNCl
Acanthamoeba polyphaga [1]
  Activity: Active
Acanthamoeba polyphaga [2]
  Activity: Active
Acanthamoeba polyphaga [3]
  Activity: Active
Acanthamoeba hatchetti [4]
  Activity: 3 h
Acanthamoeba hatchetti [5]
  Activity: 1 h
Acanthamoeba hatchetti [6]
  Activity: inactive
Acanthamoeba polyphaga [7]
  Activity: Active
Acanthamoeba hatchetti [8]
  Activity: 15 h
Acanthamoeba hatchetti [9]
  Activity: inactive
Acanthamoeba polyphaga [10]
  Activity: 3 h
Acanthamoeba hatchetti [11]
  Activity: Active
Acanthamoeba hatchetti [12]
  Activity: Active
Acanthamoeba polyphaga [13]
  Activity: inactive
Acanthamoeba castellanii [14]
  Activity: 36 h
Acanthamoeba polyphaga [15]
  Activity: Active
Acanthamoeba castellanii [16]
  Activity: 2
Acanthamoeba hatchetti [17]
  Activity: 30 h
Acanthamoeba castellanii [18]
  Activity: 36 h
Acanthamoeba castellanii [19]
  Activity: 30 h
Acanthamoeba polyphaga [20]
  Activity: 2
Acanthamoeba hatchetti [21]
  Activity: Active
Acanthamoeba hatchetti [22]
  EC50: 10.1 mM
Acanthamoeba polyphaga [23]
  EC50: 16.6 mM
Acanthamoeba hatchetti [24]
  EC50: 9.15 mM
Acanthamoeba polyphaga [25]
  EC50: 5 mM
  EC90: 9.08 mM
Acanthamoeba polyphaga [26]
  EC50: 11.7 mM
Acanthamoeba polyphaga [27]
  EC50: 12.9 mM
Acanthamoeba polyphaga [28]
  EC50: 4.96 mM
  EC90: 9.03 mM
Acanthamoeba hatchetti [29]
  Activity: 4600
Acanthamoeba hatchetti [30]
  Activity: 100000
Acanthamoeba castellanii [31]
  Activity: 7200
Acanthamoeba castellanii [32]
  Activity: 130000
Acanthamoeba polyphaga [33]
  Activity: Active
Acanthamoeba hatchetti [34]
  Activity: inactive
